In data set [1] the test system is L. donovani promastigotes. Put plainly: In vitro potency. The data set is classed as cell-based. To be noted: Leishmania donovani, 72 h, read-out: IC50 against L. donovani promastigotes.
Data set [2] in a line: In vitro preliminary safety assessment: cytotoxicity on THP-1 cells. To be noted: human, PMA-treated THP-1 monocytic cells. Format: cell-based.

Structures are written as SMILES.

As a reminder, the IC50 is the midpoint of a concentration-inhibition curve. With `CCCCCCCCCCCCCCCCOP(=O)([O-])OCC[N+](C)(C)C` [Miltefosine], the IC50 in data set [1] is 3.5 µM.
What is called CC50 is the concentration at which the toxic effect on the cells reaches its halfway point. Read a high CC50 as better tolerance by the cells. Take `CCCCCCCC/C=C\CCCCCCCCCCCCOP(=O)([O-])OCC[N+](C)(C)C` [Erufosine]: in data set [2], the midpoint of cytotoxicity, the CC50 at 72 h, lay at 19.4 µM. Also, the IC50 in data set [1] is 9.8 µM.

The values are drawn from paper PMC10312039 (Journal of Enzyme Inhibition and Medicinal Chemistry, 2023).
